Test results taken from patent US20260000642A1 (Tay Therapeutics Limited, priority 2022, published 2026).
Values joined by “and” are separate entries in the source; they are usually repeats but may differ in a detail not shown here. Identical values can stand only once.

Tested on: collagen-induced arthritis in Lewis rats
Experiment: Collagen-induced arthritis (CIA) model in rats: body weight, paw volume, clinical scores, clinical observations; on Detailed Clinical Scores, left forelimb: key of the grades not given here; on Detailed Clinical Scores, left hind limb: key of the grades not given here; on Detailed Clinical Scores, right forelimb: key of the grades not given here; on Detailed Clinical Scores, right hind limb: key of the grades not given here; on Detailed Clinical Scores, score: key of the grades not given here; on Overall clinical score: key of the grades not given here
Conditions: for Animal paw volume / Animal body weight percent change: Group 3 (CIA + Dexamethasone); for Animal paw volume: individual animals 1-8; for Animal paw volume percent change (%): individual animals, CIA + reference compound (Groups 3, 4); for Average animal body weight percent change: CIA + compound; for Detailed Clinical Scores, left forelimb / Detailed Clinical Scores, left hind limb / Detailed Clinical Scores, right forelimb / Detailed Clinical Scores, right hind limb / Detailed Clinical Scores, score: per animal ID; for Overall clinical score: individual CIA rats
[1] = CIA rats, daily P.O. for 21 days

Procedure: Prior to be randomly placed in treatment groups, animals were weighed, and paw volume was measured. Once randomly assigned to treatment groups, on Day 0, animals in groups 2-9 were immunized by subcutaneous injection at the base of the tail. The immunization comprised 100 μL of the CFA+Collagen emulsion (prepared according to the method in Experimental Method A). Animals in group one received no immunization. Seven days after the first injection, animals in groups 2-9 received a booster immunization comprising 200 μL of the IFA+Collagen emulsion (prepared according to the method in Experimental Method A).
Starting on Day 0, animals in group 1 and 2 were administered daily doses of the vehicle per os (P.O.) for 21 days.
The twice daily doses for animals in groups 4-9 were 8 hours apart (e.g., the first dose at 8:00 AM and the second dose at 4:00 PM).
Body weight of all animals was recorded daily for the 21-day period. Blind clinical scores on all four limbs were conducted for all animals in the study. Animals were assessed prior to receiving their first dose of the compound or control, and scores for each limb were combined to a total daily score for each animal. Clinical score assessments were performed on Day 0, 6, 12, 13, 14, 15, 18, 19, and 21 (for a total of 9 daily scores).
Paw volume was recorded for each animal on Day 0, 6, 12, 13, 14, 15, 18, 19, and 21 (for a total of 9 measurements). To measure paw volume, animals were gently held with one hand while the hind paw was placed into a plethysmometer with the other hand. Lipid displacement by the paw was recorded and used to represent paw volume.
At the conclusion of the study (end of the 21-day period), animals were euthanized. Euthanasia occurred four hours after animals received their first dose on the morning of Day 21. Hind limbs were collected following euthanasia, with the left limb being used for H&E staining.
All data measured and recorded was analyzed using SPSS 16.0 software. Groups were compared using one-way ANOVA and significance was set at p<0.05.
Arthritis was induced in Lewis rats by immunizing animals with the CFA+Collagen emulsion via subcutaneous injection at the base of the tail on day 0. Seven days after the first immunization, animals received a booster immunization with the IFA+Collagen emulsion via subcutaneous injection at the base of the tail.
Starting on day 0, animals in group 1 and 2 were administered daily doses of the vehicle per os (P.O.) for 21 days. […] The twice daily doses for animals in groups 4-9 were 8 hours apart (e.g., the first dose at 8:00 AM and the second dose at 4:00 PM).

C[C@@H]1C[C@H]2[C@@H]3CCC4=CC(=O)C=C[C@]4(C)[C@@]3(F)[C@@H](O)C[C@]2(C)[C@@]1(O)C(=O)CO [dexamethasone]
animals that gained weight by the end of the study (of 8) (CIA rats, day 21 vs day 0, daily P.O. for 21 days): 4/8 | diarrhea over the 21-day period [1]: did not have diarrhea | increase in body weight, day 21 compared to day 0 [1]: 1.3% | Animal paw volume (Day 0, L paw): 1.35 mL and 1.31 mL and 1.39 mL and 1.33 mL and 1.30 mL (2×) and 1.34 mL and 1.36 mL | Animal paw volume percent change (%) (Day 0, L paw): 0.00% | Animal paw volume (Day 0, R paw): 1.34 mL and 1.30 mL (2×) and 1.38 mL and 1.35 mL and 1.29 mL and 1.36 mL and 1.37 mL | Animal paw volume percent change (%) (Day 0, R paw): 0.00% | Average animal body weight percent change (Day 0): 0.00% | Detailed Clinical Scores, left forelimb (Day 0, CIA): 0 | Detailed Clinical Scores, left hind limb (Day 0, CIA): 0 | Detailed Clinical Scores, right forelimb (Day 0, CIA): 0 | Detailed Clinical Scores, right hind limb (Day 0, CIA): 0 | Detailed Clinical Scores, score (Day 0, CIA): 0 | Overall clinical score (Day 0): 0 | Average animal body weight percent change (Day 1): −2.80% | Average animal body weight percent change (Day 2): −3.22% | Average animal body weight percent change (Day 3): −4.37% | Average animal body weight percent change (Day 4): −4.95% | Average animal body weight percent change (Day 5): −4.95% | Animal paw volume (Day 6, L paw): 1.31 mL and 1.29 mL (3×) and 1.34 mL and 1.28 mL | Animal paw volume percent change (%) (Day 6, L paw): −2.97% and −1.53% and −3.61% and −3.02% and −3.09% and −3.08% and −4.12% and −5.51% | Animal paw volume (Day 6, R paw): 1.30 mL (3×) and 1.28 mL (2×) and 1.34 mL and 1.27 mL | Animal paw volume percent change (%) (Day 6, R paw): −3.00% and −1.16% and 2.91% and −1.56% and 12.70% and −5.90% and −5.13% | Average animal body weight percent change (Day 6): −4.41% | Detailed Clinical Scores, left forelimb (Day 6, CIA): 0 | Detailed Clinical Scores, left hind limb (Day 6, CIA): 0 | Detailed Clinical Scores, right forelimb (Day 6, CIA): 0 | Detailed Clinical Scores, right hind limb (Day 6, CIA): 0 | Detailed Clinical Scores, score (Day 6, CIA): 0 | Overall clinical score (Day 6): 0 | Average animal body weight percent change (Day 7): −3.35% | Average animal body weight percent change (Day 8): −3.90% | Average animal body weight percent change (Day 9): −1.84% | Average animal body weight percent change (Day 10): −2.30% | Average animal body weight percent change (Day 11): −1.24% | Animal paw volume (Day 12, L paw): 1.37 mL and 1.28 mL (2×) and 1.30 mL and 1.29 mL | Animal paw volume percent change (%) (Day 12, L paw): −10.41% and −7.66% and −1.44% and −3.40% and −1.54% and −6.54% and −3.00% and −5.51% | Animal paw volume (Day 12, R paw): 1.37 mL and 1.27 mL and 1.29 mL | Animal paw volume percent change (%) (Day 12, R paw): −6.74% and −3.09% and −0.73% and −7.43% and −1.56% and −9.27% and −7.01% and −5.86% | Average animal body weight percent change (Day 12): −1.18% | Detailed Clinical Scores, left forelimb (Day 12, CIA): 0 | Detailed Clinical Scores, left hind limb (Day 12, CIA): 0 | Detailed Clinical Scores, right forelimb (Day 12, CIA): 0 | Detailed Clinical Scores, right hind limb (Day 12, CIA): 0 | Detailed Clinical Scores, score (Day 12, CIA): 0 | Overall clinical score (Day 12): 0 | Animal paw volume (Day 13, L paw): 1.40 mL and 1.29 mL (2×) and 1.30 mL and 1.31 mL | Animal paw volume percent change (%) (Day 13, L paw): −8.92% and −5.36% and 0.72% and −3.02% and 0.00% and −4.23% and −2.25% and −5.51% | Animal paw volume (Day 13, R paw): 1.27 mL and 1.38 mL and 1.28 mL and 1.31 mL and 1.29 mL | Animal paw volume percent change (%) (Day 13, R paw): −5.99% and −2.32% and 0.36% and −7.43% and −0.78% and −6.95% and −3.69% and −5.86% | Average animal body weight percent change (Day 13): −0.91% | Detailed Clinical Scores, left forelimb (Day 13, CIA): 0 | Detailed Clinical Scores, left hind limb (Day 13, CIA): 0 | Detailed Clinical Scores, right forelimb (Day 13, CIA): 0 | Detailed Clinical Scores, right hind limb (Day 13, CIA): 0 | Detailed Clinical Scores, score (Day 13, CIA): 0 | Overall clinical score (Day 13): 0 | Animal paw volume (Day 14, L paw): 1.39 mL and 1.27 mL and 1.28 mL and 1.29 mL | Animal paw volume percent change (%) (Day 14, L paw): −8.18% and −5.36% and 0.00% and −4.53% and −1.54% and −5.00% and −3.75% and −8.46% | Animal paw volume (Day 14, R paw): 1.38 mL and 1.29 mL | Animal paw volume percent change (%) (Day 14, R paw): −5.62% and −2.70% and 0.00% and −8.92% and −2.33% and −7.72% and −5.17% and −8.06% | Average animal body weight percent change (Day 14): −1.24% | Detailed Clinical Scores, left forelimb (Day 14, CIA): 0 | Detailed Clinical Scores, left hind limb (Day 14, CIA): 0 | Detailed Clinical Scores, right forelimb (Day 14, CIA): 0 | Detailed Clinical Scores, right hind limb (Day 14, CIA): 0 | Detailed Clinical Scores, score (Day 14, CIA): 0 | Overall clinical score (Day 14): 0 | Animal paw volume (Day 15, L paw): 1.36 mL and 1.28 mL and 1.33 mL and 1.27 mL | Animal paw volume percent change (%) (Day 15, L paw): −8.92% and −7.28% and −2.17% | Animal paw volume (Day 15, R paw): 1.36 mL and 1.27 mL (2×) and 1.32 mL | Animal paw volume percent change (%) (Day 15, R paw): −6.74% and −4.25% and −1.45% | Average animal body weight percent change (Day 15): 0.43% | Detailed Clinical Scores, left forelimb (Day 15, CIA): 0 | Detailed Clinical Scores, left hind limb (Day 15, CIA): 0 | Detailed Clinical Scores, right forelimb (Day 15, CIA): 0 | Detailed Clinical Scores, right hind limb (Day 15, CIA): 0 | Detailed Clinical Scores, score (Day 15, CIA): 0 | Overall clinical score (Day 15): 0 | Average animal body weight percent change (Day 16): −0.57% | Average animal body weight percent change (Day 17): 0.62% | Animal paw volume (Day 18, L paw): 1.28 mL and 1.45 mL and 1.31 mL and 1.29 mL and 1.34 mL and 1.30 mL | Animal paw volume percent change (%) (Day 18, L paw): −5.20% and −6.51% and 4.33% | Animal paw volume (Day 18, R paw): 1.28 mL and 1.44 mL and 1.31 mL and 1.29 mL (2×) and 1.34 mL | Animal paw volume percent change (%) (Day 18, R paw): −4.49% and −4.63% and 4.36% | Average animal body weight percent change (Day 18): 1.02% | Detailed Clinical Scores, left forelimb (Day 18, CIA rats): 0 | Detailed Clinical Scores, left hind limb (Day 18, CIA rats): 0 | Detailed Clinical Scores, right forelimb (Day 18, CIA rats): 0 | Detailed Clinical Scores, right hind limb (Day 18, CIA rats): 0 | Detailed Clinical Scores, score (Day 18, CIA rats): 0 | Overall clinical score (Day 18): 0 | Animal paw volume (Day 19, L paw): 1.28 mL (2×) and 1.44 mL and 1.30 mL (2×) and 1.33 mL | Animal paw volume percent change (%) (Day 19, L paw): −5.20% and −6.90% and 3.61% | Animal paw volume (Day 19, R paw): 1.27 mL (2×) and 1.44 mL and 1.31 mL and 1.32 mL and 1.30 mL | Animal paw volume percent change (%) (Day 19, R paw): −5.24% and −6.18% | Average animal body weight percent change (Day 19): 1.53% | Detailed Clinical Scores, left forelimb (Day 19, CIA rats): 0 | Detailed Clinical Scores, left hind limb (Day 19, CIA rats): 0 | Detailed Clinical Scores, right forelimb (Day 19, CIA rats): 0 | Detailed Clinical Scores, right hind limb (Day 19, CIA rats): 0 | Detailed Clinical Scores, score (Day 19, CIA rats): 0 | Overall clinical score (Day 19): 0 | Average animal body weight percent change (Day 20): 1.66% | Animal paw volume (Day 21, L paw): 1.43 mL and 1.31 mL (2×) and 1.30 mL (2×) | Animal paw volume percent change (%) (Day 21, L paw): −6.32% and −6.90% | Animal paw volume (Day 21, R paw): 1.43 mL and 1.31 mL and 1.30 mL (2×) and 1.32 mL | Animal paw volume percent change (%) (Day 21, R paw): −5.99% and −6.18% | Average animal body weight percent change (Day 21): 1.30% | Detailed Clinical Scores, left forelimb (Day 21, CIA rats): 0 | Detailed Clinical Scores, left hind limb (Day 21, CIA rats): 0 | Detailed Clinical Scores, right forelimb (Day 21, CIA rats): 0 | Detailed Clinical Scores, right hind limb (Day 21, CIA rats): 0 | Detailed Clinical Scores, score (Day 21, CIA rats): 0 | Overall clinical score (Day 21): 0 | Animal body weight percent change (Day 0, individual animals): 0.00% | Animal body weight percent change (Day 1, individual animals): 0.66% and −7.41% and −1.72% and −2.37% and −1.20% and −6.21% | Animal body weight percent change (Day 2, individual animals): −0.66% and −6.79% and 1.15% and −1.78% and −3.01% and −8.07% | Animal body weight percent change (Day 3, individual animals): −1.99% and −11.11% and 0.57% and −2.96% and −2.41% and −9.94% | Animal body weight percent change (Day 4, individual animals): −2.65% and −9.26% and −2.30% and −5.33% and −6.02% | Animal body weight percent change (Day 5, individual animals): −2.65% and −8.02% and −5.17% and −2.96% and −4.82% | Animal body weight percent change (Day 6, individual animals): −2.65% and −6.17% and −1.72% and −4.73% and −6.63% | Animal body weight percent change (Day 7, individual animals): −0.66% and −5.56% and 2.30% and −4.14% and −3.61% | Animal body weight percent change (Day 15, individual animals): 9.93% and −3.09% and 2.30% and 0.59% and −1.20% and −6.83% and 2.33% and −0.63% | Animal body weight percent change (Day 16, individual animals): 3.97% and −5.56% and 7.47% and −0.59% and −4.22% and −8.70% and 1.16% and 1.88% | Animal body weight percent change (Day 17, individual animals): 5.96% and −4.32% and 8.05% and −2.37% and 0.60% and −6.83% and −1.16% and 5.00% | Animal body weight percent change (Day 18, individual animals): 3.97% and −6.17% and 8.62% and −2.37% and 0.00% and −5.59% and 4.07% and 5.63% | Animal body weight percent change (Day 19, individual animals): 7.28% and −9.26% and 10.34% and 0.59% and 1.20% and −5.59% and 5.81% and 1.88% | Animal body weight percent change (Day 20, individual animals): 7.95% and −3.70% and 5.75% and 2.37% and 0.60% and −4.35% and 4.65% and 0.00% | Animal body weight percent change (Day 21, individual animals): 8.61% and −3.70% and 7.47% and 0.00% and −3.01% and −5.59% and 2.91% and 3.75%
